Counter-ions that a name gives are not always drawn.
Test system: E. faecium, MRSA and S. epidermidis
Assay: Mitigating effects of zinc on biofilm formation inhibition
Assay type: cell-based
Settings: for effect of Zn(II) on ability to inhibit biofilm development: 50.0 μM compound, 25.0-200.0 μM ZnCl2, dose-dependent, hydrochloride
Excerpt: Next, Zn(II) homeostasis was examined. Zn(II) has been implicated in the pathogenesis of Gram-positive bacterial infections and may be an important regulator of biofilm formation (Conrady, D. G.; Brescia, C. C.; Horii, K.; Weiss, A. A.; Hassett, D. J.; Herr, A. B. Proceedings of the National Academy of Sciences of the United States of America 2008, 105, 19456-19461).
Procedure to Determine the Mitigating Effects of Zinc on E. faecium, MRSA and S. epidermidis Biofilm Formation Inhibition Induced by 2-(2-Amino-1H-Benzo[d]Imidazol-6-Ylcarbamoyl)-3,4,5,6-Tetrachlorobenzoic Acid Hydrochloride:
Inhibition assays were performed by taking an overnight culture of bacterial strain and subculturing it at an OD600 of 0.01 into the necessary media (brain heart infusion for E. faecium, tryptic soy broth with a 0.5% glucose supplement (TSBG) for MRSA, Luria-Bertani (LB) media for MDRAB, Luria-Bertani media without NaCl (LBNS) for PAO1 and tryptic soy broth with a 0.5% glucose supplement and a 3.0% NaCl supplement (TGN) for S. epidermidis. Stock solutions of 50.0 μM 2-(2-amino-1H-benzo[d]imidazol-6-ylcarbamoyl)-3,4,5,6-tetrachlorobenzoic acid hydrochloride were then made in the necessary media. Samples were then doped with 25.0, 50.0, 75.0, 100.0, 150.0 and 200.0 μM ZnCl2 with controls in which no test compound was added to examine effects of 200.0 μM ZnCl2 on biofilm formation. These stock solutions were aliquoted (100 μL) into the wells of the 96-well PVC microtiter plate. Sample plates were then wrapped in GLAD Press n′ Seal® followed by an incubation under stationary conditions for 24 h at 37° C. After incubation, the media was discarded from the wells and the plates were washed thoroughly with water. Plates were then stained with 100 μL of 0.1% solution of crystal violet (CV) and then incubated at ambient temperature for 30 min. Plates were washed with water again and the remaining stain was solubilized with 200 μL of 95% ethanol. A sample of 125 μL of solubilized CV stain from each well was transferred to the corresponding wells of a polystyrene microtiter dish. Biofilm inhibition was quantitated by measuring the OD540 of each well in which a negative control lane wherein no biofilm was formed served as a background and was subtracted out.

Structure (SMILES): Nc1nc2ccc(NC(=O)c3c(Cl)c(Cl)c(Cl)c(Cl)c3C(=O)O)cc2[nH]1 [Compound 3, 2-(2-amino-1H-benzo[d]imidazol-6-ylcarbamoyl)-3,4,5,6-tetrachlorobenzoic acid hydrochloride]
- effect of Zn(II) on ability to inhibit biofilm development: suppressed the ability of 3 to inhibit biofilm development
- effect of Zn(II) on ability to inhibit biofilm development (listed as 2-(2-amino-1H-benzo[d]imidazol-6-ylcarbamoyl)-3,4,5,6-tetrachlorobenzoic acid hy): mitigate the biofilm inhibition response
- biofilm formation inhibition when supplemented with ZnCl2 (200 μM ZnCl2): unable to inhibit biofilm formation

— US9221765B2, “Inhibition and dispersion of bacterial biofilms with benzimidazole derivatives” (North Carolina State University, priority 2009, dated 2015)
